Source: patent EP0791056B1, “LIPID-CLEAVAGE ENZYME COMPLEX” (priority 1994, dated 1996)
Several values for one entry are separate records, joined by “and”; a condition that tells them apart may be missing. Equal values may be shown once. Read-outs that look alike come from different tables or passages of the source. One block for each compound: values may come before it.

Assays:
LCE [1] = experiment: Substrate cleavage by LCE; assay type: biochemical; details: cleavage to drug monophosphate and DMDOP
Excerpt: Das Enzym wird vorzugsweise aus humanen peripheren Blutleukozyten, die zuvor durch PHA oder andere Stimulantien (z.B. Cytokine, etc.) aktiviert wurden, oder aus murinen Nierenzellen isoliert. Aus vorläufigen Untersuchungen ergibt sich ein Molekulargewicht von etwa 120.000 - 160.000, bestimmt nach der SDS-PAGE-Methode. Zellen, die dieses Enzym enthalten, können auf einfache Weise dadurch identifiziert werden, indem sie unter geeigneten Testbedingungen mit einer Lösung von AZT-DMDOPE oder FLT-DMDOPE versetzt werden und die Spaltprodukte AZT-monophosphat bzw. FLT-monophosphat oder DMDOP nachgewiesen werden, beispielsweise durch dünnschichtchromatographische Methoden oder im Fall von radioaktiv markierten Proben durch szintillatographische Verfahren (siehe Beispiele 4 - 7). Im Gegensatz zu den biochemisch verwandten Phospholipasen C oder -D wird das LCE nicht durch bekannte Inhibitoren von Phospholipase C oder -D gehemmt oder durch Aktivatoren von Phospholipase C oder -D aktiviert. Im Gegensatz zu Phospholipase C wird das Enzym durch die Substanz D 609 (Tricyclodecan-9-yl-xanthogenat; C11H15OS2 K) aktiviert, während D 609 Phospholipase C inhibiert.

LCE [2] = experiment: Influence of enzyme inhibitors or activators on LCE activity, kidney membrane fraction; assay type: biochemical, Balb/c
Method: Das Pipettierschema ist in der folgenden Tabelle angegeben. Tabelle
Zur Untersuchung der enzymatischen Spaltung in Abhängigkeit von der Substratkonzentration wurde eine Substratstammlösung von 0.98 nmol [^14C]-AZT-DMDOPE und 0.7 nmol AZT-DMDOPE/80 µl Aqua bidest. im LCE-Assay angesetzt. Die verschiedenen Substratkonzentrationen im LCE-Assay wurden durch kontinuierliche Verdopplung bzw. Halbierung des Volumens an Substratlösung eingestellt. Die Ansätze wurden in Glasröhrchen (5 ml) vorgelegt und durch Zugabe der Substratlösung gestartet. Die Inkubation wurde bei 37 °C im Wasserbad unter leichtem Schütteln durchgeführt.
Die Reaktionsansätze des LCE-Assays wurden nach entsprechender Inkubationszeit dem Wasserbad entnommen, und die Reaktion durch Zugabe von 750 µl 2-Propanol gestoppt. Nach gründlicher Durchmischung wurden die Ansätze anschließend mit 700 µl auf Raumtemperatur erwärmtem n-Heptan versetzt. Die Ansätze wurden erneut für 30 sec gut gemischt und zur Beschleunigung der Phasentrennung in der Minifuge T bei 3200 rpm für 15 min bei Raumtemperatur zentrifugiert. Anschließend wurden 500 µl der oberen Phase (n-Heptan) entnommen und in neue Glasröhrchen (5 ml) mit 10 mg Kieselgel 60 H und 200 µl n-Heptan überführt. Die Ansätze wurden für 30 sec gut durchmischt und zur Sedimentation des Kieselgels für 10 min unter oben genannten Bedingungen zentrifugiert. Vom Überstand wurden anschließend 500 µl entnommen und mit 3 ml Szintillationsflüssigkeit versetzt. Die Messung der Radioaktivität erfolgte für 4 min im Flüssigkeits-Szintillations-Analysator. Zur Bestimmung des Absolutwertes an Radioaktivität wurden 200 µl der Substratlösung mit 3 ml Szintillationsflüssigkeit versetzt und unter gleichen Bedingungen im Flüssigkeits-Szintillations-Analysator gemessen.

[3] = test system: nichtstimulierten humanen PBL; experiment: Intracellular concentrations of AZT and AZT nucleotides (radioimmunoassay) in non-stimulated human PBL; assay type: in vitro ADME
Excerpt: AZT wurden humane PBL aus "Buffy coat" isoliert.

stimulierten humanen PBL [4] = experiment: Intracellular concentrations of AZT and AZT nucleotides (radioimmunoassay) in stimulated human PBL; details: for Konzentrationen an AZT und AZT-Nukleotiden nach Abfall bei zunehmender Inkubationszeit: up to 24 h
Excerpt: Zur Bestimmung der intrazellulären Konzentrationen an AZT und/oder AZT-Nukleotiden nach Inkubation mit AZT-DMDOPE bzw. AZT wurden humane PBL aus "Buffy coat" isoliert.
Hierfür wurde "Buffy-coat" von gesunden Spendern gemischt und durch Zentrifugation in einem isotonischen Medium mit einer Dichte von 1.077 g/ml fraktioniert. Da mononukleare Blutzellen (Monozyten und Lymphozyten) eine geringere Dichte als Erythrozyten und polymorphkernige Granulozyten haben, bilden sie einen Ring an der Grenze zwischen Trennmedium und Probe und können mit Hilfe einer Pipette abgenommen werden. Erythrozyten und polymorphkernige Granulozyten sedimentieren aufgrund ihrer höheren Dichte durch das Medium und lassen sich somit von PBL separieren. Zur Stimulation der Zellproliferation wurde Phytohämaglutinin A (Mukoprotein) (PHA-M), der mitogene Lektinextrakt aus der roten Feuerbohne (Phaseolus vulgaris), eingesetzt. Phytohämagglutinin ist eine Familie von 5 Isolektinen, die als Tetramere vorliegen. Die Untereinheiten bestehen aus einem lymphozytenreaktiven Typ-L und einem erythrozytenreaktiven Typ-E. Typ-L hat eine hohe Affinität zu Lymphozytenoberflächenrezeptoren und ist somit verantwortlich für die mitogenen Eigenschaften. Die Stimulation der Lymphozyten wurde in KPMI 1640 Komplettmedium III für 72 h bei 37 °C und 5 % CO2 durchgeführt. Nach Beendigung der Stimulation wurden zur Erhöhung der Zellzahl die Zellen für weitere 24 h in RPMI 1640 Komplettmedium IV kultiviert.
Zur Bestimmung der intrazellulären Konzentrationen an AZT und AZT-Nukleotiden wurden die Zellen in RPMI 1640 Komplettmedium II mit einer Dichte von 1 x 10^6 Zellen/ml in Gewebekulturflaschen (50 ml/25 cm^2) überführt, und in Anwesenheit von 0.03 bzw. 0.3 µg AZT/ml (Charge 15) und 1 bzw. 10 µg AZT-DMDOPE/ml für 1 - 24 h inkubiert.
Die Kulturen wurden anschließend für 1, 3, 6 und 24 h bei 37 °C und 5 % CO2 inkubiert. AZT und seine Nukleotide wurden anschließend mit 60 % Methanol extrahiert. Die extrahierten Nukleotide wurden mit alkalischer Phosphatase quantitativ zu AZT dephosphoryliert, da nur AZT, nicht jedoch die entsprechenden Nukleotide mit Hilfe eines Radioimmuno-Assays detektiert werden kann.
Die Konzentrationen an intrazellulärem AZT, die mit Hilfe des Radioimmuno-Assays bestimmt wurden, setzten sich dementsprechend aus der des AZT und den der AZT-Nukleotide zusammen. Eine separate Quantifizierung der Konzentrationen an AZT-MP, AZT-DP und AZT-TP wurde nicht durchgeführt.
Diese Experimente wurden an stimulierten humanen PBL durchgeführt.
Hierfür wurden Zellsuspensionen mit einer Dichte von 10^6 Zellen/ml mit 1 bzw. 10 µg AZT-DMDOPE/ml für 6 bzw. 24 h bei 37 °C und 5 % CO2 inkubiert.
Zur quantitativen Bestimmung von AZT wurde ein kommerzieller ^125J-AZT RIA Test-Kit verwendet. Puffer und Lösungen wurden gemäß den Angaben des Herstellers angesetzt und im Test-Kit eingesetzt. Die Reaktionsansätze wurden nach untenstehendem Schema (Tab. ) pipettiert, vorsichtig gemischt und für 2 h bei Raumtemperatur inkubiert. Anschließend wurden zur Präzipitation des Komplexes aus ^125J-AZT und des AZT-Antikörpers (aus Kaninchen) 500 µl des Ziege-Anti-Kaninchen-Antikörpers hinzugefügt. Die Ansätze wurden gemischt und erneut bei Raumtemperatur für 30 min inkubiert.

[5] = molecular target: virale reverse Transkriptase (RT) (Human immunodeficiency virus type 1 group M subtype B, UniProt P04585); details: intracellular AZT in non-phosphorylated form; cited from earlier work
stimulierten humanen PBL [6] = experiment: Intracellular decay kinetics of AZT and AZT nucleotides after removal of the incubation solution; assay type: in vitro ADME, human; details: 24 h preincubation with 0.3 µg AZT/ml, reached 6 h after removal
Method: Stimulierte humane PBL wurden für 24 h mit 0.3 µg AZT/ml bzw. 10 µg AZT-DMDOPE/ml inkubiert. Anschließend wurden 1 x 10^7 Zellen in Gewebekulturflaschen (50 ml/25 cm^2) mit RPMI 1640 Komplettmedium I überführt. Nach 1, 3, 6, 24 und 48 h wurde AZT und die AZT-Nukleotide aus der zellulären Matrix extrahiert. Nach einer Behandlung mit alkalischer Phosphatase wurde mit Hilfe des Radioimmuno-Assays die Konzentration an AZT bestimmt.

P3X63Ag8.653-Zellen = experiment: Intracellular concentrations of AZT and AZT nucleotides (radioimmunoassay) in thymidine kinase deficient cells; assay type: in vitro ADME; details: after 48 h
Excerpt: Die Bestimmung der intrazellulären Konzentrationen an AZT und AZT-Nukleotiden in Thymidikinasedefizienten Zellen sollte weitere Erkenntnisse über die intrazelluläre Spaltung der Testsubstanz AZT-DMDOPE liefern. Intrazelluläres AZT kann in diesen Zellen aufgrund eines Mangels an Thymidin-Kinase (TK) nicht in ATZ-MP und somit in das therapeutisch wirksame AZT-TP überführt werden. Die Bestimmung der intrazellulären Konzentrationen an AZT und AZT-Nukleotiden nach Inkubation mit AZT-DMDOPE könnte somit einen weiteren Hinweis auf die Spaltung der Teststubstanz geben.
Hierfür wurden in Gewebekulturschalen (60 x 15 mm) 1 x 10^7 Zellen in RPMI 1640 Komplettmedium I mit 0.03 bzw. 0.3 µg AZT/ml und 1 bzw. 10 µg AZT-DMDOPE/ml über 6, 24 und 48 h inkubiert. Nach Extraktion von AZT und der AZT-Nukleotide und einer Behandlung mit alkalischer Phosphatase wurde die Konzentration an AZT mit Hilfe des Radioimmuno-Assays bestimmt.

stimulierten PBL = details: stimulierte PBL, Arner et al., 1992; cited from earlier work
LCE [7] = experiment: LCE assay: dependence of AZT-DMDOPE cleavage on EGTA and divalent metal cations; assay type: biochemical, human; details: for DMDOP / Spezifische Aktivität / Inhibition: Effektor 2 mM, 2 h 37 °C, n = 3; for DMDOP / Spezifische Aktivität: Membranfraktionen stimulierter humaner PBL 0.068 mg/Ansatz; for Inhibition: relative to EGTA, Membranfraktionen stimulierter humaner PBL; for Inhibierung der LCE-Aktivität (in words): divalent metal cations, 2 mM in Example 9
Method: Die Abhängigkeit der enzymatischen Spaitung von AZT-DMDOPE durch das LCE von zweiwertigen Metallkationen wurde mit Membranfraktionen stimulierter humaner PBL als Enzymquelle untersucht.
Die zweiwertigen Metallkationen wurden in einer Konzentration von 2 mM im LCE-Assay eingesetzt. Die Proteinkonzentration wurde mit 0.068 mg/Ansatz festgelegt.
Parallel wurde ein Ansatz mit EGTA mitgeführt. EGTA ist ein spezifischer Komplexbildner für Ca^2+ das essentiell für die Aktivität der Phospholipase C ist. Nach einer Inkubationszeit von 2 h bei 37 °C wurde der Umsatz der Muttersubstanz gemessen und die spezifische Aktivität des LCE bestimmt (folgende Tabelle).

[8] = LCE Membranfraktion Niere (Balb/c)

Compound: CCCCCCCCCCCCSCC(COP(=O)(O)OC[C@H]1O[C@@H](n2cc(F)c(=O)[nH]c2=O)[C@H](O)[C@@H]1O)OCCCCCCCCCC (stereo partly shown) [5-FU-DMDOPE, (5-Fluoruridin)-5'-phosphorsäure-(3-dodecylmercapto-2-decyloxy)-propylester]
Spaltung durch LCE (LCE [1]): gespalten

Einfluß auf LCE-Aktivität (LCE [2]; [8]): keine
Compound: O=[N+]([O-])c1cccc2cn[nH]c12 [7-Nitroindazol]

Compound: Cc1cn([C@H]2C[C@H](N=[N+]=[N-])[C@@H](CO)O2)c(=O)[nH]c1=O [AZT, 3'-Desoxy-3'-azidothymidin, reference compound]
intrazelluläre Konzentrationen an AZT und AZT-Nukleotiden ([3]; 0.03 µg AZT/ml): 0.10 ng/10^6 Zellen
intrazelluläre Konzentrationen an AZT und AZT-Nukleotiden ([3]; 0.3 µg AZT/ml): 0.47 ng/10^6 Zellen
maximale Konzentrationen an AZT und AZT-Nukleotiden (stimulierten humanen PBL [4]; incubation with 0.03 µg AZT/ml, reached after 6 h): 2.90 ng/10^6 Zellen
Konzentrationen an AZT und AZT-Nukleotiden nach Abfall bei zunehmender Inkubationszeit (stimulierten humanen PBL [4]; incubation with 0.03 µg AZT/ml): 2.32 ng/10^6 Zellen
maximale Konzentrationen an AZT und AZT-Nukleotiden (stimulierten humanen PBL [4]; incubation with 0.3 µg AZT/ml, reached after 3 h): 30.97 ng/10^6 Zellen
Konzentrationen an AZT und AZT-Nukleotiden nach Abfall bei zunehmender Inkubationszeit (stimulierten humanen PBL [4]; incubation with 0.3 µg AZT/ml): 19.88 ng/10^6 Zellen
inhibitorische Wirkung auf die virale reverse Transkriptase (RT) [5]: keine inhibitorische Wirkung
konstanter Wert der intrazellulären Konzentrationen an AZT und AZT-Nukleotiden (stimulierten humanen PBL [6]): 0.40 ng/10^6 Zellen
maximale intrazelluläre Konzentrationen an AZT und AZT-Nukleotiden (P3X63Ag8.653-Zellen; 0.03 µg AZT/ml): 0.03 ng/10^6 Zellen
maximale intrazelluläre Konzentrationen an AZT und AZT-Nukleotiden (P3X63Ag8.653-Zellen; 0.3 µg AZT/ml): 0.31 ng/10^6 Zellen

Compound: Cc1cn([C@H]2C[C@H](N=[N+]=[N-])[C@@H](COP(=O)(O)O)O2)c(=O)[nH]c1=O [AZT-MP, 3'-Desoxy-3'-azidothymidin-monophosphat]
im Vergleich zu AZT-DP und AZT-TP um Faktor höhere Konzentration an AZT-MP (stimulierten PBL): 40

Compound: CC(=O)Oc1ccccc1C(=O)O [Acetylsalicylsäur e]
Einfluß auf LCE-Aktivität (LCE [2]; [8]): keine

Compound: O=C(O)CN(CCOCCOCCN(CC(=O)O)CC(=O)O)CC(=O)O [EGTA]
DMDOP (LCE [7]): 84.96 ± 11.18 pmol
Spezifische Aktivität (LCE [7]): 10.41 ± 1.37 pmol/mg/min
Inhibition (LCE [7]): ≡ 0%

Compound: CCCCCCCCCCCCSCC(COP(=O)(O)OC[C@H]1O[C@@H](n2cc(C)c(=O)[nH]c2=O)C[C@@H]1F)OCCCCCCCCCC (stereo partly shown) [FLT-DMDOPE, (3'-Desoxy-3'-fluorthymidin)-5'-phosphorsäure-(3-dodecylmercapto-2-decyloxy)-propylester]
Spaltung durch LCE (LCE [1]): gespalten

Einfluß auf LCE-Aktivität (LCE [2]; [8]): keine
Compound: Nc1nc2c(ncn2C2OC(COP(=O)(O)OP(O)(=S)OP(=O)(O)O)C(O)C2O)c(=O)[nH]1 (stereo not drawn) [GTP-β-S]

Compound: [Cl][Mn][Cl] [MnCl2]
DMDOP (LCE [7]): 4.75 ± 0.63 pmol
Spezifische Aktivität (LCE [7]): 0.58 ± 0.08 pmol/mg/min
Inhibition (LCE [7]): 94%
Inhibierung der LCE-Aktivität (in words) (LCE [7]): totalen Hemmung
Inhibierung der LCE-Aktivität (in words) (LCE [7]; listed as Mn^2+): Inhibierung

Einfluß auf LCE-Aktivität (LCE [2]; [8]): keine
Compound: O=C(NCCCCCCNC(=O)ON=C1CCCCC1)ON=C1CCCCC1 [RHC-80267]

Einfluß auf LCE-Aktivität (LCE [2]; [8]): keine
Compound: Nc1ncnc2c1ncn2C1CCCO1 (stereo not shown) [SQ 22536]

Compound: COC[C@H]1OC(=O)c2coc3c2[C@@]1(C)C1=C(C3=O)[C@@H]2CCC(=O)[C@@]2(C)C[C@H]1OC(C)=O [Wortmannin]
Einfluß auf LCE-Aktivität (LCE [2]): keine

Compound: CaCl2
DMDOP (LCE [7]): 50.50 ± 2.13 pmol
Spezifische Aktivität (LCE [7]): 6.19 ± 0.26 pmol/mg/min
Inhibition (LCE [7]): 41.0 ± 0.25% and 41.0 ± 2.5%
Inhibierung der LCE-Aktivität (in words) (LCE [7]): Inhibierung

Compound: MgCl2
DMDOP (LCE [7]): 84.36 ± 17.02 pmol
Spezifische Aktivität (LCE [7]): 10.34 ± 2.08 pmol/mg/min
Inhibition (LCE [7]): 0%
Inhibierung der LCE-Aktivität (in words) (LCE [7]): keine Inhibierung

Einfluß auf LCE-Aktivität (LCE [2]; [8]): keine
Compound: Neomycin

Compound: ZnCl2
Spezifische Aktivität (LCE [7]): 0 pmol/mg/min
Inhibition (LCE [7]): 100.0%
Inhibierung der LCE-Aktivität (in words) (LCE [7]): totalen Hemmung
Inhibierung der LCE-Aktivität (in words) (LCE [7]; listed as Zn^2+): Inhibierung
